From patent publication US4368267A, “Epoxidation of lower α-olefins” (priority 1980, dated 1983)

Key:
[1] = test system: Methylocystis parvus OBBP (NRRL B-11,198); assay: Methane hydroxylation and alkene epoxidation by washed cell suspensions; type: cell-based; conditions: for Ability to hydroxylate methane or epoxidize C2 -C4 alkenes: methanol-grown washed cells
Method: (§1) The pH of the nutrient medium was adjusted to 7.0 by the addition of acid or base and 50 ml aliquots of the nutrient medium was charged into a plurality of 300 ml shake flasks. […] The isolates had been maintained on agar plates under an atmosphere of methane and air having a 1:1 v/v gas ratio which had been transferred every two weeks. […] The inoculated flasks were sealed air tight and were incubated on a rotary shaker of orbital radius 2.5 cm at 250 rpm and at 30° C. for two days until the turbidity in the medium had developed.
(§2) The cells were harvested by centrifugation at 10,000 ×g at 4° C. for 30 minutes. The cell pellet was washed twice with a 0.15 M phosphate buffer at a pH of 7.0 (containing 0.002 M MgCl2). The washed cells were then suspended in a 0.15 M phosphate buffer at pH 7.0.
(§3) A 0.5 ml aliquot of each washed cell suspension (2 mg cells) was put into 10 ml vials at 4° C. which were sealed with a rubber cap. The gaseous phase of the vials was removed with vacuum and then was replaced with a gas mixture of alkene and oxygen at a 1:1 v/v ratio. It was then incubated at 30° C. on a rotary shaker at 300 rpm. Samples of product (3 μl) were withdrawn periodically with a microsyringe and the products were analyzed by gas chromatography (ionization flame detector column).

[2] = test system: Methylomonas methanica S1 (NRRL B-11,199); assay: as above; type: cell-based; conditions: for Ability to hydroxylate methane or epoxidize C2 -C4 alkenes: methanol-grown washed cells
Method: as §1, §2, §3

[3] = test system: Methylomonas albus BG8 (NRRL B-11,200); assay: as above; type: cell-based; conditions: methane-grown washed cells, 30° C.
Method: The pH of the nutrient medium was adjusted to 7.0 by the addition of acid or base and 50 ml aliquots of the nutrient medium was charged into a plurality of 300 ml shake flasks. […] The isolates had been maintained on agar plates under an atmosphere of methane and air having a 1:1 v/v gas ratio which had been transferred every two weeks. The gaseous phase of the inoculated flasks was then replaced with a gas mixture comprised of methane and air having a ratio of 1:1 on a v/v basis. The inoculated flasks were sealed air tight and were incubated on a rotary shaker of orbital radius 2.5 cm at 250 rpm and at 30° C. for two days until the turbidity in the medium had developed.
as §2, §3

[4] = test system: Methylobacterium organophilum XX (ATCC 27,886); assay: Methane hydroxylation and propylene epoxidation by washed cell suspensions; type: cell-based; conditions: methane-grown washed cells, 30° C.
Method: The pH of the nutrient medium was adjusted to 7.0 by the addition of acid or base and 50 ml aliquots of the nutrient medium was charged into a plurality of 300 ml shake flasks. The shake flasks were inoculated with an inoculating loop of cells from an agar plate containing homogeneous colonies of the microorganisms on the plate (the purity of the isolates were confirmed by microscopic examination). The isolates had been maintained on agar plates under an atmosphere of methane and air having a 1:1 v/v gas ratio which had been transferred every two weeks. The gaseous phase of the inoculated flasks was then replaced with a gas mixture comprised of methane and air having a ratio of 1:1 on a v/v basis. The inoculated flasks were sealed air tight and were incubated on a rotary shaker of orbital radius 2.5 cm at 250 rpm and at 30° C. for two days until the turbidity in the medium had developed.
The cells were harvested by centrifugation at 10,000 ×g at 4° C. for 30 minutes. The cell pellet was washed twice with a 0.15 M phosphate buffer at a pH of 7.0 (containing 0.002 M MgCl2). […]
A 0.5 ml aliquot of each washed cell suspension (2 mg cells) was put into 10 ml vials at 4° C. which were sealed with a rubber cap. […] Samples of product (3 μl) were withdrawn periodically with a microsyringe and the products were analyzed by gas chromatography (ionization flame detector column).

[5] = target: T1, cell-free fractions of Methylococcus capsulatus (CRL M1, NRRL B-11,219) (Methylococcus capsulatus, UniProt G1UBD1+Q603F1+Q607G3); assay: Epoxidation and hydroxylation activities in cell-free fractions; type: biochemical
T1 sequence (G1UBD1 33-414): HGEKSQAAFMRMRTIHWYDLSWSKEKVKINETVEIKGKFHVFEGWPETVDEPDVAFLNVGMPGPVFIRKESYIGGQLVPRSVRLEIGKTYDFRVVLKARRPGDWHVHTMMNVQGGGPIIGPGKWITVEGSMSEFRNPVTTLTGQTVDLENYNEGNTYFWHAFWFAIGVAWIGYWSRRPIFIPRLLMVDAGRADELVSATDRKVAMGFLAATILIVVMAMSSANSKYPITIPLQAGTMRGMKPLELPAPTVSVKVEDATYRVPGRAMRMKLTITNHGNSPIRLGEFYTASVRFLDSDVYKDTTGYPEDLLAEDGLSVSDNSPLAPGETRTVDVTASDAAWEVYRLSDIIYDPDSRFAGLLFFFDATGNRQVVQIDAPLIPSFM
T1 sequence (Q607G3 1-247): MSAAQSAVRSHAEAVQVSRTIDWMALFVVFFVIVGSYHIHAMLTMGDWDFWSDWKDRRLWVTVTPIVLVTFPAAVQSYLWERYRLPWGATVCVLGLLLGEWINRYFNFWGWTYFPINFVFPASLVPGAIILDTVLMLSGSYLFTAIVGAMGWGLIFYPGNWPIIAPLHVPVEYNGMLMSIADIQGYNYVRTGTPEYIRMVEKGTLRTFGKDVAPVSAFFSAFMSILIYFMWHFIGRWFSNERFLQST
T1 sequence (Q603F1 1-260): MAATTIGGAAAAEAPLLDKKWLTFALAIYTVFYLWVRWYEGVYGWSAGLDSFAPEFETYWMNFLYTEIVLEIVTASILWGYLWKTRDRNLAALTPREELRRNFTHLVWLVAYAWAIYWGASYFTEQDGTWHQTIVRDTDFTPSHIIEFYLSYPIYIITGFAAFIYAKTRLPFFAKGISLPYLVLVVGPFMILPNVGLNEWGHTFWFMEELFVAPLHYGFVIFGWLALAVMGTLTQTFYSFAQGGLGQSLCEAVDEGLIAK
Method: Cells of methane-grown Methylococcus capsulatus (CRL M1, NRRL B-11,219) were obtained by the method of Example 1. […] However, when the cells were disrupted by passing twice through a French pressure cell (1000 Kg. pressure), both activities were found in the crude extract after 10,000×g. centrifugation. All of the activity in the crude extract was collected as a particulate fraction by further centrifugation of the crude extract at 40,000×g. for 90 min. at 4° C.

[6] = test system: Methylobacter capsulatus Y (NRRL B-11,201); assay: Methane hydroxylation and propylene epoxidation by washed cell suspensions; type: cell-based; conditions: for Ability to hydroxylate methane or epoxidize C2 -C4 alkenes: methanol-grown washed cells
[7] = methane-grown washed cells, 30° C.
[8] = Particulate fraction (10,000 g.-40,000 g.), 1 mg. protein
[9] = Supernatant fraction of 40,000 g., 2.5 mg. protein

C=CC [Propylene]
Conversion rate, propylene to propylene oxide [1, 7]: 1.6 μmole/hr/mg protein | Ability to hydroxylate methane or epoxidize C2 -C4 alkenes [1]: did not possess the ability | Conversion rate, propylene to propylene oxide [2, 7]: 2.7 μmole/hr/mg protein | Ability to hydroxylate methane or epoxidize C2 -C4 alkenes [2]: did not possess the ability | Conversion rate, propylene to propylene oxide [3]: 1.4 μmole/hr/mg protein | Conversion rate, propylene to propylene oxide [4]: 1.8 μmole/hr/mg protein | Oxidation Rate, Epoxidation of Propylene [5, 8]: 750 μmoles/30 min/assay | Oxidation Rate, Epoxidation of Propylene [5, 9]: 0 μmoles/30 min/assay | Ability to hydroxylate methane or epoxidize C2 -C4 alkenes [6]: did not possess the ability

C [Methane]
Conversion rate, methane hydroxylation [1, 7]: 0.7 μmole/hr/mg protein | Ability to hydroxylate methane or epoxidize C2 -C4 alkenes [1]: did not possess the ability | Conversion rate, methane hydroxylation [2, 7]: 1.3 μmole/hr/mg protein | Ability to hydroxylate methane or epoxidize C2 -C4 alkenes [2]: did not possess the ability | Conversion rate, methane hydroxylation [3]: 1.8 μmole/hr/mg protein | Conversion rate, methane hydroxylation [4]: 1.0 μmole/hr/mg protein | Oxidation Rate, Hydroxylation of Methane [5, 8]: 500 μmoles/30 min/assay | Oxidation Rate, Hydroxylation of Methane [5, 9]: 0 μmoles/30 min/assay | Conversion rate, methane hydroxylation [6, 7]: 1.2 μmole/hr/mg protein | Ability to hydroxylate methane or epoxidize C2 -C4 alkenes [6]: did not possess the ability
